Test results as given in PubChem BioAssay AID2792 (Sanford-Burnham Center for Chemical Genomics, 2010).
Activity calls are given as the source filed them. The rule behind the calls is not given here.

system: NF-kappaB luciferase reporter cells, PMA/ionomycin induced; experiment: inhibitors of PMA/ionomycin-induced NF-kB reporter, SAR follow-up, cell-based, PMA/ionomycin inducer, luciferase, set 2 (AID 2792)

IC50, inactive:
C=CCn1c(SCCCc2ccccc2)nc2c1c(=O)[nH]c(=O)n2C > 25 µM
C/C(Cl)=C\Cn1c(NCCc2ccccc2)nc2c1c(=O)n(C)c(=O)n2C > 25 µM
C/C=C/Cn1c(SCCCc2ccccc2)nc2c1c(=O)[nH]c(=O)n2C > 25 µM
C/C=C/Cn1c(SCc2ccc(Cl)cc2)nc2c1c(=O)[nH]c(=O)n2C > 25 µM
Cn1c(=O)[nH]c(=O)c2c1nc([N+](=O)[O-])n2Cc1ccccc1 > 25 µM
CCCn1c(SCCc2ccccc2)nc2c1c(=O)[nH]c(=O)n2C > 25 µM
CCCCn1c(SCC(=O)Nc2nnc(CC)s2)nc2c1c(=O)n(C)c(=O)n2C > 25 µM
CC(C)n1c(SCCCc2ccccc2)nc2c1c(=O)[nH]c(=O)n2C > 25 µM
C/C=C/Cn1c(SCc2ccccc2)nc2c1c(=O)[nH]c(=O)n2C > 25 µM
CC(C)Sc1nc2c(c(=O)[nH]c(=O)n2C)n1Cc1ccccc1 > 25 µM
Nc1nc2ccccc2n1CCOc1ccc(Cl)cc1 > 25 µM
COCCn1c(SCCCc2ccccc2)nc2c1c(=O)[nH]c(=O)n2C > 25 µM
CCCCCn1c(SCCc2ccccc2)nc2c1c(=O)[nH]c(=O)n2C > 25 µM
CCCCn1c(SCC(=O)c2ccccc2)nc2c1c(=O)[nH]c(=O)n2C > 25 µM
